Data from the supplement of paper PMC10307832.

How the values were obtained:
Test in all cases: relative viability (nuclei count vs DMSO), 5 days (fraction); higher = more cells survive
KIN001-266 + Lapatinib = compound: CCN1CCC(CC1)N2C=C(N=N2)CNC3=CC4=C(C(=CN=C4C(=C3)Cl)C#N)NC5=CC(=C(C=C5)F)Cl [KIN001-266] + CS(=O)(=O)CCNCc1ccc(-c2ccc3ncnc(Nc4ccc(OCc5cccc(F)c5)c(Cl)c4)c3c2)o1 [Lapatinib] (partner 2 µM)
How it was run: (§1)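 Five library-drug doses in √10 steps were combined with a fixed anchor-drug dose, or a single drug was given alone, by pin tool to lung cancer cell lines in 1536-well plates the day after seeding. Nuclei were stained and counted after 5 days. Relative viability is the nuclei count in treated wells over that in vehicle wells, taken as the median of duplicate plates.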

KIN001-266 + Crizotinib = compound: CCN1CCC(CC1)N2C=C(N=N2)CNC3=CC4=C(C(=CN=C4C(=C3)Cl)C#N)NC5=CC(=C(C=C5)F)Cl [KIN001-266] + C[C@@H](Oc1cc(-c2cnn(C3CCNCC3)c2)cnc1N)c1c(Cl)ccc(F)c1Cl [Crizotinib] (partner 1 µM)
How it was run: as §1

KIN001-266 + Tozasertib = compound: CCN1CCC(CC1)N2C=C(N=N2)CNC3=CC4=C(C(=CN=C4C(=C3)Cl)C#N)NC5=CC(=C(C=C5)F)Cl [KIN001-266] + Cc1cc(Nc2cc(N3CCN(C)CC3)nc(Sc3ccc(NC(=O)C4CC4)cc3)n2)n[nH]1 [Tozasertib] (partner 0.1 µM)
How it was run: as §1

KIN001-266 + Decitabine = compound: CCN1CCC(CC1)N2C=C(N=N2)CNC3=CC4=C(C(=CN=C4C(=C3)Cl)C#N)NC5=CC(=C(C=C5)F)Cl [KIN001-266] + Nc1ncn([C@H]2C[C@H](O)[C@@H](CO)O2)c(=O)n1 [Decitabine] (partner 2 µM)
How it was run: as §1

Row | Cell Line | relative viability (KIN001-266 + Lapatinib; first compound 0.08 µM) | relative viability (KIN001-266 + Lapatinib; first compound 0.253 µM) | relative viability (KIN001-266 + Lapatinib; first compound 0.8 µM) | relative viability (KIN001-266 + Lapatinib; first compound 2.53 µM) | relative viability (KIN001-266 + Lapatinib; first compound 8 µM) | relative viability (KIN001-266 + Crizotinib; first compound 0.08 µM) | relative viability (KIN001-266 + Crizotinib; first compound 0.253 µM) | relative viability (KIN001-266 + Crizotinib; first compound 0.8 µM) | relative viability (KIN001-266 + Crizotinib; first compound 2.53 µM) | relative viability (KIN001-266 + Crizotinib; first compound 8 µM) | relative viability (KIN001-266 + Tozasertib; first compound 0.08 µM) | relative viability (KIN001-266 + Tozasertib; first compound 0.253 µM) | relative viability (KIN001-266 + Tozasertib; first compound 0.8 µM) | relative viability (KIN001-266 + Tozasertib; first compound 2.53 µM) | relative viability (KIN001-266 + Tozasertib; first compound 8 µM) | relative viability (KIN001-266 + Decitabine; first compound 0.08 µM) | relative viability (KIN001-266 + Decitabine; first compound 0.253 µM) | relative viability (KIN001-266 + Decitabine; first compound 0.8 µM) | relative viability (KIN001-266 + Decitabine; first compound 2.53 µM) | relative viability (KIN001-266 + Decitabine; first compound 8 µM)
1 | NCI-H650 | 1.04 | 1.07 | 0.849 | 1.12 | 1.16 | 0.703 | 0.752 | 0.741 | 0.797 | 0.71 | 0.791 | 0.713 | 0.74 | 0.732 | 0.672 | 0.346 | 0.337 | 0.309 | 0.319 | 0.306
2 | NCI-H661 | 0.494 | 0.449 | 0.532 | 0.438 | 0.29 | 1.1 | 0.959 |  |  | 0.887 | 0.364 | 0.377 | 0.373 | 0.353 | 0.353 | 0.628 | 0.554 | 0.506 | 0.509 | 0.504
3 | NCI-H727 | 0.821 | 1.1 | 0.806 | 0.805 | 0.537 | 0.79 | 0.812 | 0.753 | 0.825 | 0.405 | 0.759 | 0.584 | 0.552 | 0.715 | 0.467 | 0.9 | 0.954 | 0.744 | 0.755 | 0.643
4 | NCI-H838 | 0.988 | 0.989 | 1.13 | 1.06 | 0.866 | 0.873 | 0.849 | 0.965 | 0.844 | 0.689 | 0.266 | 0.299 | 0.257 | 0.254 | 0.22 | 0.476 | 0.488 | 0.454 | 0.423 | 0.371
